Laboratory results as given in paper PMC7662321, “Andrographolide and Its 14-Aryloxy Analogues Inhibit Zika and Dengue Virus Infection” (Molecules, 2020).

Experiments:
[1] = MTT cytotoxicity assay in A549 cells; format: cell-based; conditions: human, A549 cells (human lung carcinoma), 24 h post-treatment
Procedure: (§1) Cytotoxicity of each compound towards cells for four selected cell lines in the range of 1 to 500 µM was evaluated using the MTT (3-(4,5-dimethylthiazol-2-yl)-2,5-diphenyltetrazolium bromide) assay at 24 h post-treatment, in parallel with control and vehicle-treated cells (0.1% dimethyl sulfoxide (DMSO)). The 50% cytotoxic concentration (CC50) values calculated from the dose-response curve (Supplementary Figures S2–S5) are shown in Table 1. Overall, a range of cytotoxicities were seen from the four compounds across the […]. The most cytotoxic combination was ZAD-1 and BHK-21 cells, while the least cytotoxic combination was andrographolide and BHK-21 cells (Table 1).
(§2) A549 cells were cultured in ninety-six-well tissue culture plates under standard conditions until the cells reached 90% confluence. The cell culture medium was removed and then cells were incubated with various concentrations of andrographolide (1–100 μM) diluted in complete medium with FBS prior to being cultured for 24 h under standard conditions before analysis using either the Vybrant MTT Cell proliferation assay kit (V13154, Invitrogen) or the alamarBlue (Thermo Fischer Scientific, Waltham, MA, USA) assay kit according to the manufacturers recommendations. Values were determined from 8 (MTT assay) or 3 (alamarBlue) independent replicates. Negative controls (only media and media with 0.1% DMSO) and positive controls (5% DMSO) were included. To determine cell number, cell cultures were trypsinized by the addition of 0.25% Trypsin/0.1% ethylelediaminetetraacetic acid (EDTA) for 3 min and then cell suspensions were diluted with 0.4% trypan blue solution. Cells were counted using a hemocytometer. Cell morphology was additionally observed under an inverted microscope after 24 h treatment with various concentrations of each compound.
(§3) Figu re S4. Cytotoxicity of ZAD -1 (A), ZA D-2 (B), ZA D-3 (C), and andro grapholide (D) to A549 (human lung carcinoma) cells. A549 cells were incubated with various concentrations of each compound for 24 hrs followed by MTT cell viability assay. The experiment was undertaken independently in 4 replicates.
(§4) DMSO at the same concentrations was used as a control. 10% ethanol, PBS, and milli- Q water were used as a positive control of cell death. The bars show mean ± SD. […]

[2] = MTT cytotoxicity assay in HEK293T/17 cells; format: cell-based; conditions: human, HEK293T/17 cells (human embryonic kidney), 24 h post-treatment
Procedure: as §1, §2
Figu re S5. Cytotoxicity of ZAD -1 (A), ZA D-2 (B), ZA D-3 (C), and andro grapholide (D) to HEK293T/17 (human embryonic kidney) cells.
HEK293T/17 cells were incubated with various concentrations of each compound for 24 hrs followed by MTT cell viability assay. The experiment was undertaken independently in 4 replicates. DMSO at the same concentrations was used as a control.
10% ethanol, PBS, and milli- Q water were used as a positive control of cell death. […]

[3] = MTT cytotoxicity assay in Vero cells; format: cell-based; conditions: African green monkey, Vero cells (monkey kidney), 24 h post-treatment
Procedure: as §1, §2
Figu re S3. Cytotoxicity of ZAD -1 (A), ZA D-2 (B), ZA D-3 (C), and andro grapholide (D) to Ve r o (monkey kidney) cells. Ve r o cells were incubated with various concentrations of each compound for 24 hrs followed by MTT cell viability assay. The experiment was undertaken independently in 4 replicates. DMSO at the same concentrations was used as a control. 10% ethanol, PBS, and milli- Q water were used as a positive control of cell death. The bars show mean ± SD. […]

ZIKV = assay: Percentage of ZIKV infection of A549 cells by flow cytometry; format: cell-based, Zika virus; conditions: A549, MOI 5, 10 and 25 µM, 24 h, vs vehicle
Procedure: To confirm the effects of andrographolide and the andrographolide analogues on ZIKV infection, A549 cells were infected with ZIKV at MOI of 5 for 2 h, and subsequently treated with the compounds at concentrations of 10 and 25 μM or with vehicle for 24 h. The cells were harvested for determination of the percentage of infection by flow cytometry, while the supernatants were collected for determination of viral titer by standard plaque assay.
HEK293T/17 or A549 cells were cultured in six-well plates under standard conditions until the cells reached 80% confluence. HEK293T/17 cells were infected with DENV 2, while A549 cells were infected with ZIKV Thai strain at MOI 5 for 2 h at 37 °C and 5% CO2 in culture medium without FBS. Mock infection was undertaken in parallel. After the infection period, the medium was removed and replaced with complete medium (including FBS) containing 0.1% DMSO (no treatment control) or the appropriate concentration of each compound and cells were again incubated under standard conditions. At 24 h post-treatment, cells were harvested for determination of effects of compounds on percentage of infection and supernatant was collected for determination of viral productivity. All experiments were undertaken independently in triplicate with duplicate plaque assay.
Mock- or viral-infected cells (with or without compound treatment) were harvested at an appropriate time point then incubated with 10% normal goat serum (NGS; Gibco Invitrogen) in PBS-immunofluorescence assay (IFA) buffer on ice for 30 min. The cells were washed with 800 µL of 1% BSA/PBS-IFA and fixed with 200 µL of 4% paraformaldehyde in PBS-IFA at room temperature in the dark for 20 min. After washing with 800 µL of 1% BSA/PBS-IFA, cells were permeabilized with 200 µL of 0.2% Triton X-100 in PBS-IFA for 10 min at room temperature in the dark. Subsequently, the cells were washed with 800 µL of 1% BSA/PBS-IFA followed by overnight incubation with 50 µL of primary antibody (1:150 dilution of pan-specific anti-dengue virus E protein antibody HB114 for DENV and 1:2 dilution of anti-flavivirus antibody HB112 for ZIKV). After washing twice with 800 µL of 1% BSA/PBS-IFA, the cells were incubated with 50 µL of a goat anti-mouse IgG conjugated with fluorescein isothiocyanate (FITC; KPL, Guilford, UK) diluted 1:40 with 1% BSA/PBS-IFA at room temperature in the dark for 1 h. The cells were washed twice with 800 µL of 1% BSA/PBS-IFA and resuspended in 100 µL of PBS-IFA. The fluorescence signal was analyzed by flow cytometry on a BD FACalibur cytometer (Becton Dickinson, BD Biosciences, San Jose, CA, USA) using CellQuest™ software (Version 6). All experiments were undertaken independently in triplicate. All raw flow cytometry data plots are provided in Supplementary Figures S13–S19.

[4] = MTT cytotoxicity assay in BHK-21 cells; format: cell-based; conditions: hamster, BHK-21 cells (baby hamster kidney), 24 h post-treatment
Procedure: as §1, §2
as §3, with “S2.” for “S4.”, “BHK- 21 (baby hamster kidney)” for “A549 (human lung carcinoma)”, “BHK- 21” for “A549”
as §4

DENV 2 = assay: Percentage of DENV 2 infection of HEK293T/17 cells by flow cytometry; format: cell-based, dengue virus; conditions: HEK293T/17, MOI 5, 10 µM, 24 h; exception to the significant reduction
Procedure: The effects of the compounds on DENV-2 infection were evaluated using HEK293T/17 as host cells at MOI of 5. The cells were infected with DENV 2 for 2 h and then the cells were incubated with the compounds at non-cytotoxic (or morphology altering) concentrations of 10 and 25 μM of ZAD-1 and ZAD-3, or 25 and 50 μM of ZAD-2, or 50 and 75 μM of andrographolide or 0.1% DMSO vehicle control. After 24 h of treatment, cells were harvested for determination of the percentage of infection by flow cytometry, while the culture supernatants were collected to determine the viral production.
HEK293T/17 or A549 cells were cultured in six-well plates under standard conditions until the cells reached 80% confluence. HEK293T/17 cells were infected with DENV 2, while A549 cells were infected with ZIKV Thai strain at MOI 5 for 2 h at 37 °C and 5% CO2 in culture medium without FBS. Mock infection was undertaken in parallel. […]
Mock- or viral-infected cells (with or without compound treatment) were harvested at an appropriate time point then incubated with 10% normal goat serum (NGS; Gibco Invitrogen) in PBS-immunofluorescence assay (IFA) buffer on ice for 30 min. […] The fluorescence signal was analyzed by flow cytometry on a BD FACalibur cytometer (Becton Dickinson, BD Biosciences, San Jose, CA, USA) using CellQuest™ software (Version 6). […]

| SMILES | CC50 at 24 h [1] | CC50 at 24 h [2] | CC50 at 24 h [3] | number of ZIKV-infected cells (percentage of infection) (ZIKV) | CC50 at 24 h [4] | percentage of DENV 2 infection (DENV 2) |
| --- | --- | --- | --- | --- | --- | --- |
| C=C1CC[C@@H]2[C@](C)(CO)[C@H](O)CC[C@@]2(C)[C@@H]1C/C=C1/C(=O)OC[C@@H]1Oc1ccc([N+](=O)[O-])cc1OC [ZAD-2] | 194 ± 17 µM | 197 ± 7 µM | 179 ± 13 µM | no significant effects | 218 ± 16 µM | – |
| C=C1CC[C@@H]2[C@](C)(COC(C)=O)[C@H](O)CC[C@@]2(C)[C@@H]1C/C=C1/C(=O)OC[C@H]1Oc1ccc([N+](=O)[O-])cc1OC [ZAD-3] | 190 ± 22 µM | 201 ± 25 µM | 186 ± 25 µM | no significant effects | 175 ± 7 µM | exception |
